# Source: patent EP2966448B1, “METHOD FOR THE PREDICTION OR PROGNOSIS OF THE RESPONSE OF A HUMAN SUBJECT SUFFERING FROM CANCER TO TREATMENT WITH AN ANTAGONIST OF THE NK1 RECEPTOR” (priority 2013, dated 2014)
# Like-named read-outs stand apart in the source and are kept apart here.
# Legend:
# Burkitt Lymphoma = experiment: Inhibition of primary tumor cell cultures (48 hours) vs NK1 receptor immunostaining (Example 1); format: cell-based; conditions: Homo sapiens, 1 micromolar, read-out: Percentage of inhibition of cell cultures
# Experimental: (§1) Cell cultures. To obtain tumor cells from human primary tumors we used the method described in De Bari et al. (De Bari et al. 2001). Briefly, small pieces of the tumors were digested into a hyaluronidase solution (Sigma-Aldrich, USA) at a concentration of 1 mg/ml during 15 minutes at 37°C, and then they were treated with 6 mg/ml of collagenase type IV (Invitrogen) during 2 hours at 37°C. Consecutively, cells were washed, and resuspended in the DMEM culture medium with high concentration of glucose (Dulbecco's Modified Eagle's Medium, Invitrogen) supplemented with 1% of antibiotics-antimycotics (Invitrogen) and with 1% of sodium pyruvate (Invitrogen), and the cells were seeded in culture slides at a concentration of 10.000 cells per square centimeter. When cells reached confluence, the adherent cells were separated using sterile trypsin at 0,5% (Invitrogen) and they were used among passages 3 and 9. For the assays shown next, tumor cells were seeded on slides at a concentration of 25.000 cells per well. A total of 6 wells containing the tumor cells were used as survival control. […] All the cultures were kept during 48 hours and later on recollected for their analysis.
# (§2) Immunohistochemistry techniques. The presence of NK1 receptors was also analyzed using immunohistochemistry techniques. Briefly, a sample of each of the cultures of the cell lines used in the present invention, was centrifuged (5 minutes at 1.500 rpm) and the pellet obtained was dehydrated using increasing concentrations of ethanol and, finally, xylol. Then, said dehydrated samples were embedded in paraffin, creating a block of cells. Such paraffin blocks were cut with a microtome at 5 microns thickness, and were placed on microscope slides adequate to perform immunohistochemistry techniques. Consecutively, they were de-paraffinized by immersing them in xylol, to be finally hydrated using a solution containing decreasing concentrations of ethanol, and finally submerged them into water. […] After this, the samples were left to cool down at room temperature for 10 minutes. The endogenous peroxidase activity was blocked with 3% peroxide of hydrogen for 30 minutes at room temperature. After washing the samples with 0.05 M of Tris buffer, they were incubated with 10% non-immune pork serum at for 30 minutes at room temperature. To analyze the expression of NK1 receptors, the cellular samples were incubated in the presence of anti-NK1 antibodies (S8305, Sigma-Aldrich) diluted 1:1000, overnight at 4°C. Afterwards, the samples were washed in Tris buffer 0.05 M at room temperature. The next step was the addition of Envision System-HRP (Dako) reagents for 30 minutes at room temperature. Then, the samples were washed again in Tris buffer 0.05 M and the immunoreactivity was visualized through light microscopy with a chromogenic solution containing 3,3'-Diaminobenzidine (DAB+; Dako, USA). To differentiate the cell nuclei, they were slightly stained with hematoxylin. As negative control, it was used samples not incubated with the primary antibody anti-NK1, which was replaced by non-immune serum. All the samples were evaluated.
# (§3) To value the immunostaining in each of the cases six cuts were performed to be analyzed by the immunohistochemistry technique. In each of the six cuts, it was counted cells in 20 fields (magnification 400x) using an Olympus microscope (model CX31). In each field it was counted the total number of cells and the number of cells presenting immunostaining, calculating afterwards the percentage of cells which presented immunostaining.
# [1] = test system: Thyroid carcinoma (follicular carcinoma); experiment: Inhibition of primary tumor cell cultures vs Kras mutation (Example 2); format: cell-based, human; conditions: Homo sapiens, Cases with Kras mutated; 100 micromolar; read-out: Percentage of inhibition of cell cultures
# Experimental: (§4) To obtain tumor cells from human primary tumors we used the method described in De Bari et al. (De Bari et al. 2001). Briefly, small pieces of the tumors were digested into a hyaluronidase solution (Sigma-Aldrich, USA) at a concentration of 1 mg/ml during 15 minutes at 37°C, and then they were treated with 6 mg/ml of collagenase type IV (Invitrogen) during 2 hours at 37°C. Consecutively, cells were washed, and resuspended in the DMEM culture medium with high concentration of glucose (Dulbecco's Modified Eagle's Medium, Invitrogen) supplemented with 1% of antibiotics-antimycotics (Invitrogen) and with 1% of sodium pyruvate (Invitrogen), and the cells were seeded in culture slides at a concentration of 10.000 cells per square centimeter. When cells reached confluence, the adherent cells were separated using sterile trypsin at 0,5% (Invitrogen) and they were used among passages 3 and 9. For the assays shown next, tumor cells were seeded on slides at a concentration of 25.000 cells per well. A total of 6 wells containing the tumor cells were used as survival control. […] All the cultures were kept during 48 hours and later on recollected for their analysis.
# (§5) In each case the presence or not of mutations in K-ras gene was determined.
# (§6) To determine the existence of mutations in the K-ras gene DNA from cancer tumor cells was extracted from samples obtained from the different cancer tumor cells, using DNA extraction kits from Takara (Madison, WI, US) or Ambion (Huntingdon, Cambridgeshire, United Kingdom), following the manufacturer's instructions, and as it has been previously published (Di Fiore F, et al. 2007). Consecutively it was analyzed by sequencing the exon 2 of the KRAS gene, , by means of PCR amplification from previously extracted cancer tumor DNA, using the following sense primer (SEQ ID NO. 15): 5'-[sequence]-3' and anti-sense primer (SEQ ID NO. 16): 5'-[sequence]-3'. After the purification using the Qiagen extraction kit, the PCR products were sequenced using the Big Dye Terminator Kit V3.1 (Applied Biosystems, Foster City, CA, U.S.) and an ABI Prism 377 or 3100 DNA sequencer (Applied Biosystems). The presence of a heterozygous mutation in the KRAS gene in cancer tumor cells of the cultures was defined as the appearance of a mutant peak of a height of at least a third of the wild type. All the sequence analysis were executed at least twice in two independent PCR.
# (§7) The antibody against NK1 receptor (Table 16) was used at 1/50 concentration. The percentages of inhibition are expressed in percentage of variation in relation to control ± standard deviation.
# [2] = test system: human primary tumor cells; experiment: Inhibition of primary tumor cell cultures vs absence or presence of ERK  protein (Example 3; tumor type per table line); format: cell-based; conditions: Non Hodgkin Lymphoma T (diffuse T cell lymphoma), 100 micromolar
# Experimental: (§8) Cell cultures. […] Briefly, small pieces of the tumors were digested into a hyaluronidase solution (Sigma-Aldrich, USA) at a concentration of 1 mg/ml during 15 minutes at 37°C, and then they were treated with 6 mg/ml of collagenase type IV (Invitrogen) during 2 hours at 37°C. Consecutively, cells were washed, and resuspended in the DMEM culture medium with high concentration of glucose (Dulbecco's Modified Eagle's Medium, Invitrogen) supplemented with 1% of antibiotics-antimycotics (Invitrogen) and with 1% of sodium pyruvate (Invitrogen), and the cells were seeded in culture slides at a concentration of 10.000 cells per square centimeter. When cells reached confluence, the adherent cells were separated using sterile trypsin at 0,5% (Invitrogen) and they were used among passages 3 and 9. For the assays shown next, tumor cells were seeded on slides at a concentration of 25.000 cells per well. A total of 6 wells containing the tumor cells were used as survival control. […] All the cultures were kept during 48 hours and later on recollected for their analysis.
# Consecutively, the cells were placed in cultures in the presence of several antagonists of the NK1 receptor.
# In each case it was determined the presence or absence of the downstream effector in the MAP Kinases ERK pathway.
# To determine the presence of the ERK protein, it was performed a Western Blot technique, using as primary antibody: Phospho-p44/42 MAPK (Erk1/2) (Thr202/Tyr204) (D13.14.4E) XP® Rabbit mAb (4370, Cell Signalling). To determine the presence of the MEK protein, it was performed the Western Blot technique, using as primary antibody Phospho-MEK1/2 (Ser217/221) (9121, Cell Signalling).
# The antibody against NK1 receptor (Table 21) was used at 1/50 concentration. The percentages of inhibition are expressed in percentages of variation in relation to control ± standard deviation.
# [3] = test system: Lung carcinoma (small cell type); experiment: Inhibition of primary tumor cell cultures (48 hours) vs NK1 receptor immunostaining (Example 1); format: cell-based; conditions: Homo sapiens, 1 micromolar, read-out: Percentage of inhibition of cell cultures
# Experimental: as §1, §2, §3
# Prostate carcinoma [4] = experiment: cells; conditions: Homo sapiens, 1 micromolar
# Experimental: as §1, §2, §3
# [5] = test system: Ovarian carcinoma (Adenocarcinoma); experiment: Inhibition of primary tumor cell cultures vs Kras mutation (Example 2); format: cell-based, human; conditions: Homo sapiens, Cases with Kras mutated; 100 micromolar; read-out: Percentage of inhibition of cell cultures
# Experimental: as §8, §5, §6, §7
# [6] = test system: human primary tumor cells; experiment: Inhibition of primary tumor cell cultures vs amplification of the gene encoding the NK1 receptor (Example 6; tumor type per table line); format: cell-based; conditions: Non Hodgkin Lymphoma T (diffuse T cell lymphoma); Cases with amplification of the gene that encodes for the NK1 receptor; 100 micromolar
# Experimental: as §8
# The presence or absence of the amplification of the gene encoding for the NK1 receptor was determined, and then the cells were cultured in the presence of several antagonists of the NK1 receptor.
# For each case, the presence or absence of amplification of the gene encoding for the NK1 receptor was determined.
# In order to determine the presence of the amplification (increase in the number of copies) of the gene encoding the NK1 receptor (TAC1R), it was used the comparative genomic hybridization technique (CGH Array). Firstly genomic DNA was extracted from each case. Later, it was performed the marking and hybridization of the DNA of each sample together with DNA of a commercial reference without genomic alterations (from masculine or feminine sex, depending on the gender of the patient from whom the samples were obtained). The Array is Sureprint G3 Human CGH Microarray from the company Agilent was used, with an average separation between probes of 5.3Kb and 4.6Kb for the genes RefSeq. The reading of the microarray was done with the DNA Microarray Scanner G2565CA from Agilent, at a resolution of 3 µm. The analysis of the results was performed with the software Cytogenomics v 2.0.6.0 from Agilent with ADM-2: 6.0; Centralization: ON (Threshold: 6.0, Bin size: 10); Fuzzy zero: ON; Aberration filters: ON (minProbes=5 and minAvgAbsLopRatio= 0,5); Feature Level Filters : ON. The genomic coordinates are coincident with the NCBI36genome (hg18). Cases were distributed in two groups: Group I for those cases without the amplification of the gene encoding the NK1 receptor (locus 2p13.1-p12), and Group II for those cases with amplification of the gene encoding the NK1receptor (locus 2p13.1-p12).
# The antibody against NK1 receptor (Table 36) was used at 1/50 concentration. The percentages of inhibition are expressed in percentages of variation in relation to control ± standard deviation.
# Prostate carcinoma [7] = experiment: Inhibition of primary tumor cell cultures vs Kras mutation (Example 2); format: cell-based, human; conditions: Homo sapiens, Cases with Kras mutated; 100 micromolar; read-out: Percentage of inhibition of cell cultures
# Experimental: as §1, §5, §6
# (§9) The percentages of inhibition are expressed in percentage of variation in relation to control ± standard deviation.
# [8] = test system: Lung carcinoma (non small cell lung carcinoma); experiment: as above; format: cell-based, human; conditions: Homo sapiens, Cases with Kras mutated; 100 micromolar; read-out: Percentage of inhibition of cell cultures
# Experimental: as §4, §5, §6, §7
# Myeloma = experiment: Inhibition of primary tumor cell cultures (48 hours) vs NK1 receptor immunostaining (Example 1); format: cell-based; conditions: Homo sapiens, 1 micromolar, read-out: Percentage of inhibition of cell cultures
# Experimental: as §1, §2, §3
# [9] = test system: Urinary bladder carcinoma (transitional cell carcinoma); experiment: Inhibition of primary tumor cell cultures vs Kras mutation (Example 2); format: cell-based, human; conditions: Homo sapiens, Cases with Kras mutated; 100 micromolar; read-out: Percentage of inhibition of cell cultures
# Experimental: as §4, §5, §6, §7
# Endometrium carcinoma = experiment: as above; format: cell-based, human; conditions: Homo sapiens, Cases with Kras mutated; 100 micromolar; read-out: Percentage of inhibition of cell cultures
# Experimental: as §8, §5, §6, §7
# Hodgkin lymphoma = experiment: Inhibition of primary tumor cell cultures (48 hours) vs NK1 receptor immunostaining (Example 1); format: cell-based; conditions: Homo sapiens, 1 micromolar, read-out: Percentage of inhibition of cell cultures
# Experimental: as §1, §2, §3
# [10] = test system: human primary tumor cells; experiment: Inhibition of primary tumor cell cultures vs low or high expression of the truncated form of NK1 receptor (Example 5; tumor type per table line); format: cell-based; conditions: 100 micromolar
# Experimental: as §1
# The presence of the truncated form of NK1 receptor was determined and then cells were cultured in presence of several antagonists of the NK1 receptor.
# In each case the presence of the truncated form of the NK1 receptor was determined.
# To determine the presence of the truncated form of the gene of NK1 receptor PCR technique was performed (Polymerase Chain Reaction). The extraction of RNA, amplifications of PCR, cycle conditions and quantitative analysis were executed as it has been previously described. The specific primers were the following: For the full-length NK1R receptor (NM_001058.3; forward (SEQ ID NO: 17)-: 5'-[sequence]-3 ' and reverse- (SEQ ID NO:18): 5'-[sequence]-3') and for the truncated NK1receptor (NM_015727.2; forward (SEQ ID NO: 19): 5'-[sequence]-3 and reverse (SEQ ID NO;20): 5'-[sequence]-3').
# Cases were distributed in two groups: • Group A -low expression of the truncated form of NK1 receptor- for those cases wherein the expression of the truncated form of NK1 receptor was less than double the expression of the full length form of such receptor. • Group B -high expression of the truncated form of NK1 receptor- for those cases wherein the expression of the truncated form of the NK1 receptor was higher than double the expression of the full length form of such receptor.
# The percentages of inhibition are expressed in percentage of variation in relation to the control ± standard deviation.
# [11] = test system: Breast carcinoma (ductal adenocarcinoma); experiment: Inhibition of primary tumor cell cultures vs Kras mutation (Example 2); format: cell-based, human; conditions: Homo sapiens, Cases with Kras mutated; 100 micromolar; read-out: Percentage of inhibition of cell cultures
# Experimental: as §8, §5, §6, §7
# Colon carcinoma = experiment: Inhibition of primary tumor cell cultures (48 hours) vs NK1 receptor immunostaining (Example 1); format: cell-based; conditions: Homo sapiens, 1 micromolar, read-out: Percentage of inhibition of cell cultures
# Experimental: as §1, §2, §3
# [12] = test system: Lung carcinoma (small cell lung carcinoma); experiment: Inhibition of primary tumor cell cultures vs Kras mutation (Example 2); format: cell-based, human; conditions: Homo sapiens, Cases with Kras mutated; 100 micromolar; read-out: Percentage of inhibition of cell cultures
# Experimental: as §4, §5, §6, §7
# [13] = test system: Non Hodgkin Lymphoma T (diffuse T cell lymphoma); experiment: as above; format: cell-based, human; conditions: Homo sapiens, T-cell, Cases with Kras mutated; 100 micromolar; read-out: Percentage of inhibition of cell cultures
# Experimental: as §1, §5, §6, §9
# [14] = NK1 receptor immunostaining Group 1 (less than 20% of the cells)
# [15] = NK1 receptor immunostaining Group 2 (20-80% of the cells)
# [16] = NK1 receptor immunostaining Group 3 (more than 80% of the cells)
# [17] = NK1 receptor immunostaining Intensity grade 1
# [18] = NK1 receptor immunostaining Intensity grade 2
# [19] = NK1 receptor immunostaining Intensity grade 3
smiles,measurement,setting,value
C[C@@H](O[C@H]1OCCN(Cc2n[nH]c(=O)[nH]2)[C@H]1c1ccc(F)cc1)c1cc(C(F)(F)F)cc(C(F)(F)F)c1 [Aprepitant],inhibition at 1 µM,Burkitt Lymphoma; [14],10 ± 2%
same,inhibition at 1 µM,Burkitt Lymphoma; [15],45 ± 6%
same,inhibition at 1 µM,Burkitt Lymphoma; [16],96 ± 4%
same,inhibition at 1 µM,Burkitt Lymphoma; [17],27 ± 5%
same,inhibition at 1 µM,Burkitt Lymphoma; [18],55 ± 3%
same,inhibition at 1 µM,Burkitt Lymphoma; [19],92 ± 5%
same,inhibition at 100 µM,[1],26 ± 3%
same,Percentage of inhibition of cell cultures,[2]; cases with presence of ERK,94±4 percentage
same,Percentage of inhibition of cell cultures,[2]; cases without presence of ERK,23±3 percentage
same,inhibition at 1 µM,[3]; [14],10 ± 2%
same,inhibition at 1 µM,[3]; [15],42 ± 3%
same,inhibition at 1 µM,[3]; [16],97 ± 6%
same,inhibition at 1 µM,[3]; [17],29 ± 6%
same,inhibition at 1 µM,[3]; [18],56 ± 6%
same,inhibition at 1 µM,[3]; [19],96 ± 4%
same,inhibition at 1 µM,"Prostate carcinoma [4]; read-out: Percentage of inhibition of cell cultures, NK1 receptor immunostaining Group 1 (less than 20% of the cells)",11 ± 3%
same,inhibition at 1 µM,"Prostate carcinoma [4]; read-out: Percentage of inhibition of cell cultures, NK1 receptor immunostaining Group 2 (20-80% of the cells)",46 ± 6%
same,inhibition at 1 µM,"Prostate carcinoma [4]; read-out: Percentage of inhibition of cell cultures, NK1 receptor immunostaining Group 3 (more than 80% of the cells)",95 ± 5%
same,inhibition at 1 µM,"Prostate carcinoma [4]; read-out: Percentage of inhibition of cell cultures, NK1 receptor immunostaining Intensity grade 1",27 ± 5%
same,inhibition at 1 µM,"Prostate carcinoma [4]; read-out: Percentage of inhibition of cell cultures, NK1 receptor immunostaining Intensity grade 2",58 ± 6%
same,inhibition at 1 µM,"Prostate carcinoma [4]; read-out: Percentage of inhibition of cell cultures, NK1 receptor immunostaining Intensity grade 3",93 ± 7%
same,inhibition at 100 µM,[5],24 ± 5%
same,Percentage of inhibition of cell cultures,[6],94±7 percentage
same,inhibition at 100 µM,Prostate carcinoma [7],24 ± 3%
same,inhibition at 100 µM,[8],21 ± 2%
same,inhibition at 1 µM,Myeloma; [14],11 ± 2%
same,inhibition at 1 µM,Myeloma; [15],46 ± 5%
same,inhibition at 1 µM,Myeloma; [16],95 ± 4%
same,inhibition at 1 µM,Myeloma; [17],28 ± 5%
same,inhibition at 1 µM,Myeloma; [18],55 ± 3%
same,inhibition at 1 µM,Myeloma; [19],92 ± 5%
same,inhibition at 100 µM,[9],26 ± 5%
same,inhibition at 100 µM,Endometrium carcinoma,25 ± 4%
same,inhibition at 1 µM,Hodgkin lymphoma; [14],10 ± 3%
same,inhibition at 1 µM,Hodgkin lymphoma; [15],49 ± 3%
same,inhibition at 1 µM,Hodgkin lymphoma; [16],94 ± 5%
same,inhibition at 1 µM,Hodgkin lymphoma; [17],26 ± 5%
same,inhibition at 1 µM,Hodgkin lymphoma; [18],55 ± 3%
same,inhibition at 1 µM,Hodgkin lymphoma; [19],92 ± 6%
same,Percentage of inhibition of cell cultures,"[10]; Non Hodgkin Lymphoma B (diffuse B cell lymphoma), Cases with low expression of the truncated form of NK1 receptor (Group A)",23±4 percentage
same,Percentage of inhibition of cell cultures,"[10]; Non Hodgkin Lymphoma T (diffuse T cell lymphoma), Cases with high expression of the truncated form of NK1 receptor (Group B)",98±6 percentage
same,Percentage of inhibition of cell cultures,"[10]; Ovarian carcinoma (Adenocarcinoma), Cases with low expression of the truncated form of NK1 receptor (Group A)",29±3 percentage
same,inhibition at 100 µM,[11],22 ± 2%
same,inhibition at 1 µM,Colon carcinoma; [14],11 ± 4%
same,inhibition at 1 µM,Colon carcinoma; [15],44 ± 2%
same,inhibition at 1 µM,Colon carcinoma; [16],95 ± 4%
same,inhibition at 1 µM,Colon carcinoma; [17],26 ± 6%
same,inhibition at 1 µM,Colon carcinoma; [18],56 ± 6%
same,inhibition at 1 µM,Colon carcinoma; [19],95 ± 5%
same,inhibition at 100 µM,[12],22 ± 4%
same,inhibition at 100 µM,[13],25 ± 4%
